Among the data in patent EP1285971B1, “Methods for the phenotypic and genotypic assessment of the drug sensitivity of HIV integrase variants” (Tibotec Pharmaceuticals Ltd., priority 2001, dated 2003) are fold change and EC50 values, retold here.

For the assay, the system named is patient_146514. Kind of assay: microbe, parasite or virus in culture. The class given is cell-based, HIV. To be noted: for fold change: fold change in EC50. On the procedure: The integrase encoding sequence was amplified from either wildtype HIV-1 (IIIB) or NL4.3 virus, or HXB2D site-directed mutant viruses containing mutations in integrase (such as T66I, S153Y, M154I, or combinations thereof) (Hazuda et al., Science 2000, 287, 646-650), or patient samples. Starting from RNA, extracted from virus supernatant or plasma using the QIAamp® viral RNA extraction kit (Qiagen), cDNA was synthesized by reverse transcription (Expand TM reverse transcriptase, 30 min at 42°C) with the primer 3'EGINT10 (SEQ ID NO 11), followed by a nested PCR. The outer PCR was performed with the primers 5'EGINT1 (SEQ ID NO 1) and 3'EGINT10 (SEQ ID NO 11) (ΔR-IN-vif construct) or 5'EGINT3 (SEQ ID NO 4) and 3'EGINT10 (SEQ ID NO 11) (ΔIN construct) (Expand™ High Fidelity PCR system), and 5 µl of the outer product was used for an inner PCR with primers 5'EGINT2 (SEQ ID NO 3) and 3'EGINT11 (SEQ ID NO 12) (ΔR-IN-vif construct) or 5'EGINT4 (SEQ ID NO 5) and 3'EGINT6 (SEQ ID NO 7) (ΔIN construct). In a second protocol the outer primers were identical as described above, the inner primers are 5'EGINT5 (SEQ ID NO 6) and 3'EGINT6 (SEQ ID NO 7). The amplicons can be used for genotyping and phenotyping. Cycling conditions for both PCRs are denaturation for 3 min at 95°C, followed by 30 cycles of 1 min 90°C, 30 sec 55°C, and 2 min 72°C. A final extension was performed at 72°C for 10 min. For recombination, PCR products are purified using the QiaQuick® 96 PCR BioRobot kit (Qiagen), according to the manufacturer's protocol. If the protocol starts from DNA containing the HIV material such as proviral DNA, the reverse transcriptase step is not needed. The nested approach is also not needed when starting from proviral DNA. The obtained amplicons were sequenced using the primers: In_seq1F (SEQ ID NO 17), In_seq2F (SEQ ID NO 18), In_seq3F (SEQ ID NO 19), IN_seq1R (SEQ ID NO 20), IN_seq2R (SEQ ID NO 21), and IN_seq3R (SEQ ID NO 22).
A ΔR-IN-vif or ΔIN deletion construct was generated by site-directed mutagenesis on the template pSV40HXB2D with the primers MUT-IN1 (SEQ ID NO 13) and MUT-IN2 (ΔR-IN-vif construct) (SEQ ID NO 14) or MUT-IN3 (SEQ ID NO 15) and MUT-IN4 (SEQ ID NO 16) (ΔIN construct) (protocol Site-directed mutagenesis kit, Stratagene). After DpnI digestion for removal of the methylated template DNA, the construct was digested with SmaI and ligated to circulize the plasmid. The plasmid was transformed into competent cells such as Top10 cells, and colonies were screened for the presence of the deletion construct. The IN-deletion construct was checked by sequence analysis with primers 5'EGINT1 (SEQ ID NO 1) or […] and 3'EGINT10 (SEQ ID NO 11) or 3'EGINT11 (SEQ ID NO 12). For use in recombination experiments, large-scale plasmid DNA preparations were linearized by SmaI digestion and recombined with PCR amplified integrase genes from wild type, mutant, or patient viruses. The plasmid containing the integrase deletion (ΔIN) has been deposited pSV40HXB2D-ΔIN. The sequence of said plasmid is 14377 nucleotides long. The ΔR-IN-vif deletion construct is 13975 nucleotides long. The pSV40HXB2D-ΔIN was deposited at the Belgian Coordinated Collections of Micro-Organisms located at the Universiteit Gent - Laboratorium voor Moleculaire Biologie on August 5, 2002 and the accession number is LMBP 4574.
Recombinant virus was produced by co-transfection by electroporation of the SmaI-linearized IN-deletion construct and the integrase amplicon into MT4 cells or MT4 cells equipped with an LTR driven reporter gene construct. Production of recombinant virus was evaluated by scoring the cytopathogenic effect (CPE) that is induced by HIV-infection of MT4 cells or by the LTR-driven reporter signal induced by HIV infection in MT4 reporter cells.

Setting [1] is: AVE 2, patient_146514, primer set 3.
[2] abbreviates: Human immunodeficiency virus 1, AVE 2, patient_146514, primer set 3.

Read-outs that look alike come from different tables or passages of the source.

As to `Nc1ccn([C@@H]2CS[C@H](CO)O2)c(=O)n1` [Compound 3TC, Lamivudine], under setting [1], the fold change was 2,5. In addition, the EC50 under setting [2] is 3490 nM.
Turning to `Cc1cc(C#N)cc(C)c1Oc1nc(Nc2ccc(C#N)cc2)nc(N)c1Br` [Compound 2, 4-[[6-amino-5-bromo-2-[(4-cyanophenyl)amino]-4-pyrimidinyl]oxy]-3,5-dimethyl-Benzonitrile], under setting [1], the EC50 came out at 3.9 nM and the fold change is reported as 1,3.
Regarding `Cc1ccnc2c1NC(=O)c1cccnc1N2C1CC1` [NVP, Nevirapine], under setting [1], the fold change is 1,7. For the same compound, under setting [2], the EC50 was determined as 151 nM.
On the same counts, the results for `CC(C)c1nc(CN(C)C(=O)N[C@H](C(=O)N[C@@H](Cc2ccccc2)C[C@H](O)[C@H](Cc2ccccc2)NC(=O)OCc2cncs2)C(C)C)cs1` [RTV, ritonavir] are 1,3 and 192 nM.
Consider `Cc1cc(C#N)cc(C)c1Oc1nc(Nc2ccc(C#N)cc2)nc(N)c1Br` [Compound 1, 4-[[6-amino-5-bromo-2-[(4-cyanophenyl)amino]-4-pyrimidinyl]oxy]-3,5-dimethyl-benzonitrile], for which, under setting [1], the EC50 is 1.7 nM and the fold change is 1,7.
Consider `CC(C)(C)NC(=O)[C@@H]1CN(Cc2cccnc2)CCN1C[C@@H](O)C[C@@H](Cc1ccccc1)C(=O)N[C@H]1c2ccccc2C[C@H]1O` [IDV, Indinavir], for which the fold change under setting [1] was 1,3. For the same compound, the EC50 under setting [2] is 56.4 nM.
For `O=c1[nH]cnc2c1ncn2[C@H]1CC[C@@H](CO)O1` [DDI, Didanosine], the fold change under setting [1] was 2,2. The EC50 under setting [2] stood at 10400 nM.
On the same counts, the results for `Cc1cn([C@H]2C[C@H](N=[N+]=[N-])[C@@H](CO)O2)c(=O)[nH]c1=O` [AZT, Zidovudine] are 0,9 and 150 nM.
On the same counts, the results for `CC(C)CN(C[C@@H](O)[C@H](Cc1ccccc1)NC(=O)O[C@H]1CCOC1)S(=O)(=O)c1ccc(N)cc1` [APV, Amprenavir] are 1,4 and 117 nM.
As for `O=C(O)C1=CC(=C(c2ccc(O)c(C(=O)O)c2)c2ccc(O)c(C(=O)O)c2)C=CC1=O` [ATA], under setting [1], the fold change is 1,0. Besides, the EC50 (AVE 2, patient_146514, primer set 3, read-out: EC 50) was 1970 nM.
On to `CC(C)(C)NC(=O)[C@@H]1C[C@@H]2CCCC[C@@H]2CN1C[C@@H](O)[C@H](Cc1ccccc1)NC(=O)[C@H](CC(N)=O)NC(=O)c1ccc2ccccc2n1` [SQV, Saquinavir], for which the fold change under setting [1] was 1,7. In addition, under setting [2], the EC50 was 34.5 nM.
On the same counts, the results for `c1cc(CN2CCCNCCNCCCNCC2)ccc1CN1CCCNCCNCCCNCC1` [AMD3100] are 1,0 and 54.9 nM.
On the same counts, the results for `CC(C)Oc1ccc(Cc2ccccc2)cc1C(=O)CC(=O)C(=O)O` [Compound 4, 2-(1-methylethyloxy)-α,γ dioxo-5-(phenylmethyl)-benzenebutanoic acid] are 1,0 and 280 nM.
